Results reported in PubChem BioAssay AID330 (DTP/NCI, 2004).
Values joined by “and” are separate entries in the source; they are usually repeats but may differ in a detail not shown here. Equal entries are not always repeated. Inconclusive results and toxic doses are left out.

Tested on: P388 leukemia ip, CD2F1 mice, survival T/C
Assay: NCI In Vivo Anticancer Drug Screen. Data for tumor model P388 Leukemia (intraperitoneal) in CD2F1 (CDF1) mice
Conditions: endpoint: median survival time, higher = longer survival
In short: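 Mice carrying the transplanted tumor received test compound or vehicle. Survival was recorded in each group, and the value is the treated-group measurement divided by that of the vehicle-treated control group.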

With `CCC(=O)Nc1ccc(C(=O)NCCN(CC)CC)cc1` the T/C (dose: 50.0 mg/kg/injection, schedule: Q01DX005 (ip), vehicle: Klucel (hydroxypropylcellulose) (HPC)) was 105 % of control, the T/C (dose: 100.0 mg/kg/injection, schedule: Q01DX005 (ip), vehicle: Klucel (hydroxypropylcellulose) (HPC)) was 104 % of control and the T/C (dose: 200.0 mg/kg/injection, schedule: Q01DX005 (ip), vehicle: Klucel (hydroxypropylcellulose) (HPC)) was 100 % of control.
For `CN(C)c1ccc(/C=C(/C#N)c2ccc(Cl)cc2)cc1`, the T/C (dose: 50.0 mg/kg/injection, schedule: Q04DX003 (ip), vehicle: saline with Tween-80) was 97 % of control, the T/C (dose: 100.0 mg/kg/injection, schedule: Q04DX003 (ip), vehicle: saline with Tween-80) was 92 % of control and the T/C (dose: 200.0 mg/kg/injection, schedule: Q04DX003 (ip), vehicle: saline with Tween-80) was 92 % of control. The T/C (dose: 400.0 mg/kg/injection, schedule: Q04DX003 (ip), vehicle: saline with Tween-80) was 92 % of control.
In the case of `COC(=O)/C(=C/c1ccccc1)N(C(C)=O)C(C)=O`, the T/C (dose: 60.0 mg/kg/injection, schedule: Q01DX005 (ip), vehicle: saline with Tween-80) is reported as 100 % of control, the T/C (dose: 120.0 mg/kg/injection, schedule: Q01DX005 (ip), vehicle: saline with Tween-80) is reported as 105 % of control and the T/C (dose: 240.0 mg/kg/injection, schedule: Q01DX005 (ip), vehicle: saline with Tween-80) is reported as 107 % of control.
With `NC(=O)c1cn(C2OC(CO)C(O)C2O)c2ncnc(N)c12` (stereo not given) the T/C (dose: 0.06 mg/kg/injection, schedule: Q03HX024 (ip), vehicle: saline) was 105 % of control, the T/C (dose: 0.13 mg/kg/injection, schedule: Q01DX009 (ip), vehicle: saline) was 100 % of control and the T/C (dose: 0.13 mg/kg/injection, schedule: Q03HX008 (ip), vehicle: saline) was 111 % of control. For the same molecule, the T/C (dose: 0.13 mg/kg/injection, schedule: Q03HX016 (ip), vehicle: saline) was 122 % of control, the T/C (dose: 0.13 mg/kg/injection, schedule: Q03HX024 (ip), vehicle: saline) was 111 % of control and the T/C (dose: 0.25 mg/kg/injection, schedule: Q01DX009 (ip), vehicle: saline) was 111 % of control. The T/C (dose: 0.25 mg/kg/injection, schedule: Q03HX008 (ip), vehicle: saline) was 111 % of control, the T/C (dose: 0.25 mg/kg/injection, schedule: Q03HX016 (ip), vehicle: saline) was 111 % of control and the T/C (dose: 0.25 mg/kg/injection, schedule: Q03HX024 (ip), vehicle: saline) was 111 % of control. For the same molecule, the T/C (dose: 0.5 mg/kg/injection, schedule: Q01DX005 (ip), vehicle: saline with Tween-80) was 151 % of control, the T/C (dose: 0.5 mg/kg/injection, schedule: Q01DX009 (ip), vehicle: saline) was 105 % of control and the T/C (dose: 0.5 mg/kg/injection, schedule: Q01DX009 (ip), vehicle: suspension in saline) was 154 % of control. The T/C (dose: 0.5 mg/kg/injection, schedule: Q03HX008 (ip), vehicle: saline) was 111 % of control, the T/C (dose: 0.5 mg/kg/injection, schedule: Q03HX016 (ip), vehicle: saline) was 116 % of control and the T/C (dose: 0.5 mg/kg/injection, schedule: Q03HX024 (ip), vehicle: saline) was 111 % of control. For the same molecule, the T/C (dose: 0.5 mg/kg/injection, schedule: Q04DX003 (ip), vehicle: saline) was 105 % of control, the T/C (dose: 1.0 mg/kg/injection, schedule: Q01DX001 (ip), vehicle: saline) was 111 % of control and the T/C (dose: 1.0 mg/kg/injection, schedule: Q01DX005 (ip), vehicle: saline with Tween-80) was 161 % of control. For the same molecule, the T/C (dose: 1.0 mg/kg/injection, schedule: Q01DX009 (ip), vehicle: saline) was 111 % of control, the T/C (dose: 1.0 mg/kg/injection, schedule: Q01DX009 (ip), vehicle: suspension in saline) was 154 % of control and the T/C (dose: 1.0 mg/kg/injection, schedule: Q03HX008 (ip), vehicle: saline) was 94 % of control. The T/C (dose: 1.0 mg/kg/injection, schedule: Q03HX016 (ip), vehicle: saline) was 122 % of control, the T/C (dose: 1.0 mg/kg/injection, schedule: Q04DX003 (ip), vehicle: saline) was 116 % of control and the T/C (dose: 1.0 mg/kg/injection, schedule: Q08DX002 (ip), vehicle: saline) was 111 % of control. The T/C (dose: 2.0 mg/kg/injection, schedule: Q01DX001 (ip), vehicle: saline) was 111 % of control, the T/C (dose: 2.0 mg/kg/injection, schedule: Q01DX005 (ip), vehicle: saline with Tween-80) was 169 % of control and the T/C (dose: 2.0 mg/kg/injection, schedule: Q01DX009 (ip), vehicle: saline) was 100 % of control. The T/C (dose: 2.0 mg/kg/injection, schedule: Q01DX009 (ip), vehicle: suspension in saline) was 94 % of control, the T/C (dose: 2.0 mg/kg/injection, schedule: Q04DX003 (ip), vehicle: saline) was 111 % of control and the T/C (dose: 2.0 mg/kg/injection, schedule: Q08DX002 (ip), vehicle: saline) was 111 % of control. The T/C (dose: 4.0 mg/kg/injection, schedule: Q01DX001 (ip), vehicle: saline) was 122 % of control, the T/C (dose: 4.0 mg/kg/injection, schedule: Q04DX003 (ip), vehicle: saline) was 122 % of control and 118 % of control and the T/C (dose: 4.0 mg/kg/injection, schedule: Q08DX002 (ip), vehicle: saline) was 116 % of control. The T/C (dose: 8.0 mg/kg/injection, schedule: Q01DX001 (ip), vehicle: saline) was 111 % of control and the T/C (dose: 8.0 mg/kg/injection, schedule: Q08DX002 (ip), vehicle: saline) was 116 % of control.
